Source: the Kinase Knowledgebase extract (Sharma et al. 2016)

biological target: PIK3CB;PIK3CG;PIK3CD;PIK3CA (human) (UniProt P48736); test: Inhibition of PIK3CA/PIK3CB/PIK3CD/PIK3CG Kinase Activity

Row | Compound | IC50 [nM]
1 | COc1ccc(CC2CCCCC2)c(Nc2nc3ccccc3nc2NS(=O)(=O)c2cccnc2)c1 | 490
2 | COc1ccc(CO)c(Nc2nc3ccccc3nc2NS(=O)(=O)c2cn(C)cn2)c1 | 470
3 | COc1ccc(CC2CCS(=O)(=O)CC2)c(Nc2nc3ccccc3nc2NS(=O)(=O)c2ccc(CN(C)C)cc2)c1 | 10
4 | COCCNC(=O)c1cc(Nc2nc3ccccc3nc2NS(=O)(=O)c2cn(C)cn2)cc(OC)c1 | 400
5 | COc1ccc(CCCO)c(Nc2nc3ccccc3nc2NS(=O)(=O)c2cccc(NC(=O)CN(C)C)c2)c1 | 30
6 | COc1ccc(CCS(C)(=O)=O)c(Nc2nc3ccccc3nc2NS(=O)(=O)C(C)C)c1 | 160
7 | COc1ccc(CN2CCN(C)CC2)c(Nc2nc3ccccc3nc2NS(=O)(=O)c2ccc(F)cc2)c1 | 110
8 | COc1ccc(C(C)C)c(Nc2nc3ccccc3nc2NS(=O)(=O)c2cn(C)cn2)c1 | 200
9 | COc1ccc(CCO)c(Nc2nc3ccccc3nc2NS(=O)(=O)c2ccc(NC(=O)CN(C)C)cc2)c1 | 27
10 | COc1ccc(CC2CCCCC2)c(Nc2nc3ccccc3nc2NS(=O)(=O)c2ccc(CN(C)C)cc2)c1 | 760
11 | COc1ccc(CC2CCN(C)CC2)c(Nc2nc3ccccc3nc2NS(C)(=O)=O)c1 | 110
12 | COc1ccc(CCO)c(Nc2nc3ccccc3nc2NS(=O)(=O)C2CCCCC2)c1 | 57
13 | COc1ccc(CCS(C)(=O)=O)c(Nc2nc3ccccc3nc2NS(C)(=O)=O)c1 | 200
14 | COc1ccc(CC2CCS(=O)(=O)CC2)c(Nc2nc3ccccc3nc2NS(=O)(=O)c2cn(C)cn2)c1 | 30
15 | COc1ccc(CC2CCOCC2)c(Nc2nc3ccccc3nc2NS(=O)(=O)c2ccc(CN(C)C)cc2)c1 | 30
16 | COc1cc(CN(C)C)cc(Nc2nc3ccccc3nc2NS(=O)(=O)c2cn(C)cn2)c1 | 1100
17 | COc1ccc(CC2CCOCC2)c(Nc2nc3ccccc3nc2NS(=O)(=O)c2cn(C)cn2)c1 | 49
18 | COc1ccc(C(CO)CO)c(Nc2nc3ccccc3nc2NS(=O)(=O)c2cn(C)cn2)c1 | 550
19 | COc1ccc(CC2CCC(O)CC2)c(Nc2nc3ccccc3nc2NS(=O)(=O)c2cn(C)cn2)c1 (stereo not given) | 18
20 | COc1ccc(CCOC(=O)[C@@H](N)C(C)C)c(Nc2nc3ccccc3nc2NS(=O)(=O)c2cn(C)cn2)c1 | 100
21 | CCCS(=O)(=O)Nc1nc2ccccc2nc1Nc1cc(OC)ccc1CCO | 44
22 | COc1ccc(CCO)c(Nc2nc3ccccc3nc2NS(=O)(=O)c2ccc(CN(C)C)cc2)c1 | 26

Row | Compound | IC50 [nM]
23 | COc1ccc(CC2CCN(S(C)(=O)=O)CC2)c(Nc2nc3ccccc3nc2NS(=O)(=O)c2cn(C)cn2)c1 | 160
24 | COc1cc(CN2CCN(C)CC2)cc(Nc2nc3ccccc3nc2NS(=O)(=O)c2cccnc2)c1 | 970
25 | COc1ccc(CCCO)c(Nc2nc3ccccc3nc2NS(=O)(=O)c2ccc(NC(=O)CN(C)C)cc2)c1 | 32
26 | COCCc1ccc(OC)cc1Nc1nc2ccccc2nc1NS(=O)(=O)C1CCNCC1 | 98
27 | COc1ccc(CC2CCN(C(C)=O)CC2)c(Nc2nc3ccccc3nc2NS(=O)(=O)c2cccnc2)c1 | 51
28 | COc1ccc(CCS(C)(=O)=O)c(Nc2nc3ccccc3nc2NS(=O)(=O)CCCSC)c1 | 140
29 | COc1ccc(CCCO)c(Nc2nc3ccccc3nc2NS(=O)(=O)c2cccc(NC(=O)CO)c2)c1 | 12
30 | CCCS(=O)(=O)Nc1nc2ccccc2nc1Nc1cc(OC)ccc1CCCO | 49
31 | COCCc1ccc(OC)cc1Nc1nc2ccccc2nc1NS(=O)(=O)c1cn(C)c(CS(C)(=O)=O)n1 | 200
32 | COc1ccc(CC2CCC(O)CC2)c(Nc2nc3ccccc3nc2NS(=O)(=O)c2ccc(CN(C)C)cc2)c1 (stereo not given) | 26
33 | COc1ccc(CCO)c(Nc2nc3ccccc3nc2NS(=O)(=O)c2ccc(OCCO)cc2)c1 | 34
34 | COc1ccc(CC2CC(C)(C)N(C)C(C)(C)C2)c(Nc2nc3ccccc3nc2NS(=O)(=O)c2cn(C)cn2)c1 | 420
35 | COc1ccc(CCCO)c(Nc2nc3ccccc3nc2NS(=O)(=O)c2cn(C)c(CO)n2)c1 | 84
36 | COc1ccc(CCO)c(Nc2nc3ccccc3nc2NS(=O)(=O)c2cccnc2)c1 | 40
37 | COc1ccc(S(=O)(=O)NCCO)c(Nc2nc3ccccc3nc2NS(=O)(=O)CCCS(C)(=O)=O)c1 | 300
38 | COc1ccc(CC2CCCC2)c(Nc2nc3ccccc3nc2NS(=O)(=O)c2cn(C)cn2)c1 | 180
39 | COc1ccc(CCCO)c(Nc2nc3ccccc3nc2NS(=O)(=O)c2c(C)noc2C)c1 | 130
40 | CCCS(=O)(=O)Nc1nc2ccccc2nc1Nc1cc(OC)ccc1CCS(C)(=O)=O | 87
41 | COc1cc(Nc2nc3ccccc3nc2NS(=O)(=O)c2cn(C)cn2)cc(C(=O)NCCO)c1 | 100
42 | COc1ccc(CCCO)c(Nc2nc3ccccc3nc2NS(=O)(=O)c2cn(C)c(CN(C)C)n2)c1 | 28
43 | COc1ccc(CCO)c(Nc2nc3ccccc3nc2NS(=O)(=O)c2ccc(NC(=O)CO)cc2)c1 | 65
44 | COc1ccc(CC2C[C@H]3CC[C@@H](C2)N3C)c(Nc2nc3ccccc3nc2NS(=O)(=O)c2cn(C)cn2)c1 (stereo not given in full) | 110

Row | Compound | IC50 [nM]
45 | COC(=O)CCc1ccc(S(=O)(=O)Nc2nc3ccccc3nc2Nc2cc(OC)ccc2CCO)cc1 | 70
46 | COCCc1ccc(OC)cc1Nc1nc2ccccc2nc1NS(=O)(=O)C1CCN(C(C)=O)CC1 | 300
47 | COc1ccc(CCCO)c(Nc2nc3ccccc3nc2NS(=O)(=O)C2CCS(=O)(=O)C2)c1 (stereo not given) | 130
48 | COc1ccc(CCCO)c(Nc2nc3ccccc3nc2NS(=O)(=O)CCCS(C)(=O)=O)c1 | 120
49 | COc1cc(Nc2nc3ccccc3nc2NS(C)(=O)=O)cc(C(=O)N2CCOCC2)c1 | 5620
50 | COc1ccc(CCO)c(Nc2nc3ccccc3nc2NS(=O)(=O)c2ccc(F)cc2)c1 | 23
51 | COc1ccc(CCO)c(Nc2nc3ccccc3nc2NS(=O)(=O)c2ccc(C(=O)N(C)C)cc2)c1 | 250
52 | COC(=O)c1ccc(OC)cc1Nc1nc2ccccc2nc1NS(C)(=O)=O | 1650
53 | COc1cc(Nc2nc3ccccc3nc2NS(=O)(=O)c2cn(C)cn2)cc(C(=O)N(C)C)c1 | 760
54 | COc1ccc(CC(O)CO)c(Nc2nc3ccccc3nc2NS(=O)(=O)c2cn(C)cn2)c1 (stereo not given) | 120
55 | COc1cc(Nc2nc3ccccc3nc2NS(=O)(=O)c2cccnc2)cc(C(=O)N2CCOCC2)c1 | 3100
56 | COc1ccc(CCS(C)(=O)=O)c(Nc2nc3ccccc3nc2NS(=O)(=O)CCCS(C)(=O)=O)c1 | 350
57 | CCCCO.COCCc1ccc(OC)cc1Nc1nc2ccccc2nc1NS(=O)(=O)c1cn(C)cn1 | 83
58 | COc1ccc(CC2CCN(C(C)=O)CC2)c(Nc2nc3ccccc3nc2NS(C)(=O)=O)c1 | 170
59 | COc1ccc(CC2CCN(C(C)=O)CC2)c(Nc2nc3ccccc3nc2NS(=O)(=O)c2cn(C)cn2)c1 | 89
60 | CCS(=O)(=O)Nc1nc2ccccc2nc1Nc1cc(OC)ccc1CCO | 60
61 | COc1ccc(CCS(C)(=O)=O)c(Nc2nc3ccccc3nc2NS(=O)(=O)c2cn(C)cn2)c1 | 84
62 | COc1ccc(CCO)c(Nc2nc3ccccc3nc2NS(=O)(=O)C2CCS(=O)(=O)C2)c1 (stereo not given) | 86
63 | COc1ccc(CC2CCOCC2)c(Nc2nc3ccccc3nc2NS(C)(=O)=O)c1 | 130
64 | COc1ccc(CC2CCN(C(=O)CN(C)C)CC2)c(Nc2nc3ccccc3nc2NS(=O)(=O)c2cn(C)cn2)c1 | 100
65 | COc1ccc(C(=O)O)c(Nc2nc3ccccc3nc2NS(=O)(=O)c2cccnc2)c1 | 4680
